Measured values taken from US20020065314A1, “COMPOSITIONS AND METHOD FOR STIMULATING HAIR GROWTH” (priority 1995, published 2002).
Entries after “also recorded” stand apart in the source; their conditions may differ. Where two headings read alike, the source gives them in different places.

Assays:
C57BL/KsJ db/+ mice [1] = conditions: for hair growth on dorsum (photograph): 31 days post application
Protocol: The induction of hair loss following treatment with certain anticancer drugs, such as cyclophosphamide or doxorubicin, is well documented (A. Tierney & J. Taylor (1991) Nurs. Stand 5:29-31; R. R. Love, et al. (1989) Cancer 63:604-612; B. W. Cline (1984) Cancer Nurs. 7:221-228). The following experiment was performed to determine the effect of n-butyl cyanoacrylate on hair regrowth in mice pre-treated with cyclophosphamide or doxorubicin. Twenty mice of strain C57BL/KsJ db/+ were peritoneally injected with either cyclophosphamide in PBS (20 mg per kilogram of body weight) or Doxorubicin in PBS (2 mg per kilogram of body weight) for 10 consecutive days. Then a single 10 μl dose of n-butyl cyanoacrylate was applied topically to an area of the shaved dorsum of each animal. Control mice, which were injected with PBS alone, were treated similarly. The effects of hair regrowth were determined both by phototrichogram (macroscopic observation using photography) and by folliculogram (microscopic observation of histological changes in the treated and untreated skin).

[2] = test system: C57BL/KsJ db/+ and C57BL/KsJ db/db mice; test: Effect of isobutyl cyanoacrylate on hair growth, topical; format: in vivo, mouse; conditions: C57BL/KsJ db/db, 10 μl cm^−2 topical
Protocol: The following experiment was performed to identify the effect of isobutyl cyanoacrylate, a structural analog of n-butyl cyanoacrylate, on hair growth. The shaved backs of C57BL/KsJ db/+ and C57BL/KsJ db/db mice were treated topically at a dose of 10 μl cm^−2 with either isobutyl cyanoacrylate (Sigma Chemical Co., St Louis, Mo.) or n-butyl cyanoacrylate.

C57BL/KsJ db/+ mice [3] = test: Inhibition of n-butyl cyanoacrylate-stimulated hair growth by neutralizing antibodies; format: in vivo, mouse; conditions: day 14, sites 2 and 3, 10 μl per site
Protocol: Forty mice of strain C57BL/KsJ db/+ eight weeks old were divided into four equal groups (A-D). The dorsal aspect of the mice were shaved, and five different sites on the dorsum were designated (sites 1-5). Each site was 5-6 mm^2. Animals of group A were treated topically at sites 1, 2 & 3 with n-butyl cyanoacrylate only (10 μl per site) formulated as Nexaband^R Liquid. Animals of group B were treated topically at sites 1, 2 & 3 with the same dose of n-butyl cyanoacrylate, but sites 1 and 3 subsequently received subcutaneous injections of either anti-TGF-β1 neutralizing antibody (1 μg per g of body weight) in PBS/0.1% BSA (at site 1), or PBS/0.1% BSA as a matched control (at site 3). Group C animals were treated as for Group B except that anti-EGF neutralizing antibody was injected at site 1 instead of anti-TGF-pi. […] Group D animals were shaved only and received no treatment.
Hair regeneration was documented by macroscopic observations supported by serial photographs of treatment sites. Histological observations were made on skin biopsies taken at frequent intervals ranging from 6 hours to 21 days post-treatment.

[4] = test system: C57BL/KsJ db/+ and C57BL/KsJ db/db mice; test: Effect of isobutyl cyanoacrylate on hair growth, topical; format: in vivo, mouse; conditions: C57BL/KsJ +/+, 10 μl cm^−2 topical
Sprague Dawley rats = test: Single topical application, hair growth in rats; format: in vivo, rat
Text: (§1) At the gross level, the hair growth in the shaved treated area occurs at 8-12 days and reaches full length at about 14-20 days post treatment, however, the remainder of the shaved untreated area remains hairless and the hair follicles small (in telogen (resting) phase)(5A-5B). The response of hair growth to the n-butyl cyanoacrylate stimulus is very similar in 6 other strains of mice (C57BL/KsJ +/+, C57BL/KsJ db/db, Balb/cBYj +/+, Balb/cBYj nu/+, HRS/J hr/+, and RHJ/LeJ hr^rh-j/+) (FIGS. 6A-6C) and Sprague Dawley rats (FIGS. 7A-7B). The hair growth rate in the fastest growth period (at about 10-15 days post treatment) reaches 1 mm per day. This is entirely consistent with the microscopically observed stimulation of hair follicles following treatment.

TGF-β2,3 = test: Immunohistochemistry of growth factors in treated skin; format: in vivo, mouse; conditions: throughout the study period
Protocol: Forty stock female mice of strain C57BL/KsJ db/+ at eight weeks of age were treated with a single dose of n-butyl cyanoacrylate applied topically to the shaved dorsum. Animals were sacrificed at days 4, 6, 8, 10, 12, 14, 16, 18, 20, and 22 post-treatment, and skin samples were excised to yield an area of n-butyl cyanoacrylate treated skin together with a contiguous, adjacent sample of untreated skin. In preparation for immunohistochemistry, samples were washed in PBS, fixed in 10% formalin, and secondarily fixed in Bouin's solution prior to paraffin embedding. Multiple 4-5 μm sections were placed on slides pre-coated with 3-aminopropylethoxysilane.
The following primary antibodies were used: anti-TGF-β1 neutralizing antibody; anti-TGF-β2,3; and anti-EGF receptor.

[5] = test system: C57BL/KsJ db/+ mice and 6 other strains of mice; test: Single topical application to shaved dorsum of mice: cutaneous changes and hair growth; format: in vivo, mouse
Text: The dorsal aspect of C57BL/KsJ db/+ female mice was shaved and a single topical dose of n-butyl cyanoacrylate (formulated as Nexaband^R Liquid) was applied. […] At this early stage some of these new aggregates form laminae and appear to constitute neo-angiogenesis. At day 1 post application, the gross appearance of inflammation was still apparent, and there was microscopic evidence for the formation of a lumen from an aggregate of cells in the subcutaneous layer. […] These changes were only observed in the treated area. […] Between eight and 12 days post application, hair follicles and new hair were present at the sites of application; the remainder of the shaved area remained hairless. Epidermal and dermal thickening and new hair follicle development in treated skin were pronounced until days 10-20 post application (FIGS. 3A-3B), at which time large mature hair follicles traversed the entire thickness of the dermis and subcutaneous layer (FIG. 3C). Hair follicle density reached a maximum level at about days 20-30 post application, at which time the epithelium and connective tissue elements began to return to their pre-treatment appearance (FIGS. 4A-4B).
as §1

[6] = C57BL/KsJ db/+, post application

C=C(C#N)C(=O)OCCCC [n-butyl cyanoacrylate]
time new hair remained (until sacrifice) (C57BL/KsJ db/+ mice [1]; animals pre-treated with cyclophosphamide, after treatment): ≥ 335 days | time of growing to full length (C57BL/KsJ db/+ mice [1]; mice pre-treated with cyclophosphamide, doxorubicin and PBS, post treatment): 15 to 18 days | beginning of hair regrowth in treated areas (C57BL/KsJ db/+ mice [1]; mice pre-treated with cyclophosphamide, doxorubicin and PBS, single 10 μl topical dose, post treatment): 8 to 11 days | hair growth on dorsum (photograph) (C57BL/KsJ db/+ mice [1]; pre-treated with cyclophosphamide): profound growth of new unpigmented gray hairs in the treated area | hair growth on dorsum (photograph) (C57BL/KsJ db/+ mice [1]; pre-treated with doxorubicin): profound growth of hair with normal pigmentation in the treated area | Hair growth [2]: 3+ (high hair regeneration with an area larger than 50% of the treated area) | stimulation of hair growth at sites treated with n-butyl cyanoacrylate alone (C57BL/KsJ db/+ mice [3]): clearly evident; also recorded: new hair growth was present | reproducibility of hair growth induced (mice and rats; 10 mg/10 μl cm^−2, more than 700 normal adult mice and rats, and 80 diabetic (db/db) animals): 100% | side effect, toxic effect or tumor-like tissue formation after the treatment (mice and rats; in vivo): No any side effect or toxic effect or tumor-like tissue formation after the treatment has been observed except for a mild inflammation shortly after application | hair growth in normal intact skin, in skin of animals pre-treated with anticancer drugs, and at edges of wounds (mice and rats; two species (rat and mouse), seven strains of mouse): stimulate hair growth | Hair growth [4]: 3+ (high hair regeneration with an area larger than 50% of the treated area) | histology, hair follicle density treated vs untreated area (Sprague Dawley rats; Sprague Dawley rat): much higher density of hair follicles in treated area | hair growth on dorsum (photograph) (Sprague Dawley rats; Sprague Dawley rat, 23 days post application): hair growth appears as a rectangle pattern | time over which no shedding of induced hair has been found (Sprague Dawley rats; rats, post treatment): over 210 days | intensity of TGF-β2,3 stain in the epidermis (TGF-β2,3): greater than that of TGF-β1 | response of hair growth compared with C57BL/KsJ db/+ ([5]; 6 other strains of mice and Sprague Dawley rats): very similar | hair growth on dorsum (photograph) ([5]; Balb/cBYj nu/+, 19 days post application): hair growth appears in a circle pattern | hair follicle number, maximum increase treated vs untreated areas ([5]; C57BL/KsJ db/+): about 2 fold | histology of treated skin ([5]; C57BL/KsJ db/+, 16 days following application): large mature hair follicles traversing the entire thickness of the skin | hair growth on dorsum (photograph) ([5]; C57BL/KsJ db/+, 17 days post application): triangle pattern of hair growth | histology of treated skin vs adjacent untreated area ([5]; C57BL/KsJ db/+, 19 days after topical treatment): high concentration of large mature hair follicles | scanning electron micrograph, treated vs adjacent untreated area ([5]; C57BL/KsJ db/+, 23 days after treatment): higher density of hairs and deeper hair roots in the treated area | histology of treated skin ([5]; C57BL/KsJ db/+, day 3 post application): multilayered epidermis, thickened dermis, and epidermal peg elongation; also recorded: evidence of trichogenesis was clearly seen at the treatment site | histology of treated skin ([5]; C57BL/KsJ db/+, day 10 post application): increase in the number of mature hair follicles; also recorded: new epithelial pegs had developed into mature hair follicles | thickness of the dermis layer, increase treated vs untreated areas ([5]; C57BL/KsJ db/+, days 16-20 post treatment): 1.5 fold | thickness of the dermis layer, treated vs untreated areas ([5]; C57BL/KsJ db/+, first day after treatment): about 1.3 fold | time of maximum hair follicle density [5, 6]: 20 to 30 days | time until which epidermal and dermal thickening and new hair follicle development were pronounced [5, 6]: 10 to 20 days | time at which dermis returns to normal thickness ([5]; C57BL/KsJ db/+, post treatment): about 70 days | time at which epidermis returns to normal thickness ([5]; C57BL/KsJ db/+, post treatment): about 40 days | time at which hair reaches full length ([5]; C57BL/KsJ db/+, post treatment): 14 to 20 days | thickness of the epidermis layer, maximum increase in treated areas vs maximum level in untreated areas ([5]; C57BL/KsJ db/+, topical): about 2 fold | early change of treated skin ([5]; C57BL/KsJ db/+, within six hours of application): slight thickening of the treated skin | time at which new hair follicle formation occurs in treated area ([5]; after treatment): 2 to 3 days | hair growth rate in the fastest growth period ([5]; at about 10-15 days post treatment): 1 mm per day | hair growth on dorsum (photograph) ([5]; diabetic C57BL/KsJ db/db, 27 days post application): hair growth appears in a rectangle pattern | hair follicle number, maximum in treated vs untreated areas ([5]; diabetic strain C57BL/KsJ db/db): about 4 fold | time hair regrowth in treated areas remains unchanged while shaved untreated areas are hairless ([5]; genetically healing-impaired diabetic mice, post treatment): more than 216 days | time over which no shedding of induced hair has been found ([5]; mice, post treatment): > 335 days | length of new hairs over those in adjacent untreated area ([5]; mouse, in vivo): 1-2 mm | localization of the hair growth response ([5]; mouse, in vivo): completely localized to the area where the stimulator is applied | time at which hair growth occurs (is seen) in shaved treated area ([5]; post treatment, single topical dose): 8 to 12 days | hair regrowth after repeated shaving ([5]; single application, area subsequently shaved three times at 20-day intervals): the hair keeps regrowing in the treated areas
